Laboratory results taken from patent publication US20230331652A1, “TRANS-CYCLOOCTENES WITH HIGH REACTIVITY AND FAVORABLE PHYSIOCHEMICAL PROPERTIES” (University of Delaware, priority 2020, published 2023).

Experiments:
[1] = toward 20; no kinetic example for 4b in the patent, FIG. 4A footnotes cite earlier measurements in 100% H2O; cited from earlier work
[2] = Stopped-flow kinetics of the Diels-Alder reaction with tetrazine 20; assay type: physicochemical; conditions: toward tetrazine 20, stopped flow, 25° C., 95:5 PBS:MeOH
Protocol: The kinetics for the reaction of a-TCO derivative 14 toward a 3,6-dipyridyl-s-tetrazinyl succinamic acid derivative 20 were measured by stopped flow kinetics at 25° C. in 95:5 PBS:MeOH (FIG. 4A).
Stopped-flow kinetics measurements were performed on a SX18MV-R stopped-flow spectrophotometer (Applied Photophysics Ltd.) with temperature control (25° C.).
The reaction between 5-ax-hydroxy-5-eq-(2-hydroxyethyl)-trans-cyclooctene 14 and 3,6-dipyridyl-s-tetrazine-mono-succinamic acid 20 was monitored by a SX18MV-R stopped-flow spectrophotometer (Applied Photophysics Ltd.) at 325 nm by measuring the exponential decay of tetrazine under pseudo-first order conditions. Solutions of 14 (0.98, 1.46, 1.95, and 2.63 mM in 9:1 PBS/MeOH) and tetrazine (0.1 mM in PBS) were mixed in the stopped-flow spectrophotometer in equal volumes resulting in final concentrations of 0.49 mM, 0.73 mM, 0.97 mM, and 1.31 mM of 14 and 0.05 mM of tetrazine in 95:5 PBS/MeOH. Three independent samples were prepared for each TCO concentration and measurements were taken in duplicate every 0.1 ms for 0.1 sat 25° C. The observed rates kobs for each run were determined by nonlinear regression analysis of the data points using Prism software (Version 8.00, GraphPad Software Inc). The average kobs values were plotted against the concentrations of 14 to obtain the bimolecular rate constant k2 from the slope of the plot.
The observed rates (kobs) of 5-ax-hydroxy-5-eq-(2-hydroxyethyl)-trans-cyclooctene 14 (10-30 equivalents) and 3,6-dipyridyl-s-tetrazine-mono-succinamic acid 20 were measured using stopped-flow kinetics. The final concentrations of 14 after injection were (A) 0.49 mM, (B) 0.73 mM, (C) 0.97 mM, and (D) 1.31 mM and the concentration of tetrazine was 0.05 mM in 95:5 PBS/MeOH at 25° C. Duplicate measurements were obtained for three independent samples for each concentration of 14.
The reaction between 5-ax-hydroxy-trans-cyclooctene 4a and 3,6-dipyridyl-s-tetrazine-mono-succinamic acid 20 was monitored by a SX18MV-R stopped-flow spectrophotometer (Applied Photophysics Ltd.) at 325 nm by measuring the exponential decay of tetrazine under pseudo-first order conditions. Solutions of 4a (100, 200, 300, and 400 μM in 9:1 PBS/MeOH) and tetrazine (20 μM in PBS) were mixed in the stopped-flow […] 95:5 PBS/MeOH. Three independent samples were prepared for each TCO concentration and measurements were taken in duplicate every 0.1 ms for 0.2 s at 25° C. The observed rates kobs for each run were determined by nonlinear regression analysis of the data points using Prism software (Version 8.00, GraphPad Software Inc). The average kobs values were plotted against the concentrations of 4a to obtain the bimolecular rate constant k2 from the slope of the plot.
The observed rates (kobs) of 5-ax-hydroxy-trans-cyclooctene 4a (5-20 equivalents) and 3,6-dipyridyl-s-tetrazine-mono-succinamic acid 20 were measured using stopped-flow kinetics. […]

[3] = Stability in methanol-d4 (35 mM) by quantitative 1H NMR; assay type: physicochemical; conditions: 35 mM in methanol-d4, after 7 days
Protocol: (§1) A solution of 14 (4.5 mg, 26 μmol) in methanol-d4 (750 μL) was monitored by quantitative ^1H NMR on a 600 MHz instrument to observe the decomposition of the trans-isomer over time. Methyl tert-butyl ether (3.1 μL, 26 μmol) was used as an internal standard. […] The results were plotted using Prism software (Version 8.00, GraphPad Software Inc). A waterfall plot of the ^1H NMR spectra is provided.
as §1, with “4a (3.3” for “14 (4.5”

[4] = Stability in phosphate buffered D2O, pD=7.4 (33 mM) by quantitative 1H NMR; assay type: physicochemical
Protocol: (§2) Phosphate buffered D2O (pD=7.4) was prepared by combining anhydrous sodium dihydrogen phosphate (NaH2PO4, 77.1 mg) and anhydrous disodium hydrogen phosphate (Na2HPO4, 204.4 mg) with 20 mL of D2O to make a 0.1 M solution. The pD was measured on a Fisher Scientific AB15 Plus pH meter and pH values were converted to pD by adding 0.4 units. The pD was adjusted to 7.4 with DCI (35 wt. % in D2O) and NaOD (40 wt. % in D2O) as necessary.
(§3) A solution of 14 (4.3 mg, 25 μmol) in phosphate buffered D2O (750 μL, pD=7.4) was monitored by quantitative ^1H NMR on a 600 MHz instrument to observe the decomposition of the trans-isomer over time. Methyl tert-butyl ether (3.0 μL, 26 μmol) was used as an internal standard. After 1 day, 90% of 14 remained and after 5 days, 39% remained (FIG. 6B). The results were plotted using Prism software (Version 8.00, GraphPad Software Inc). A waterfall plot of the ^1H NMR spectra is provided.
as §3, with “4a (3.2” for “14 (4.3”, “85%” for “90%”, “4a” for “14”, “35%” for “39%”

[5] = Stability with mercaptoethanol (25 mM) in phosphate buffered D2O, pD=7.4; assay type: physicochemical; conditions: 25 mM mercaptoethanol
Protocol: as §2
TCO 14 (3.1 mg, 18 μmol) in a solution of mercaptoethanol in phosphate buffered D2O (720 μL, 18 μmol, 25 mM, pD=7.4) was monitored by quantitative 1H NMR on a 600 MHz instrument to observe the decomposition of the trans-isomer over time. Methyl tert-butyl ether (2.1 μL, 18 μmol) was used as an internal standard. After 4 hours, 93% of 14 remained and 49% of 14 remained after 20 hours. (FIG. 6C). The results were plotted using Prism software (Version 8.00, GraphPad Software Inc). A waterfall plot of the ^1H NMR spectra is provided.
TCO 4a (2.3 mg, 18 μmol) in a solution of mercaptoethanol in phosphate buffered D2O (720 μL, 18 μmol, 25 mM, pD=7.4) was monitored by quantitative 1H NMR on a 600 MHz instrument to observe the decomposition of the trans-isomer over time. Methyl tert-butyl ether (2.1 μL, 18 μmol) was used as an internal standard. After 4 hours, 89% of 4a and 49% of 4a remained after 20 hours. (FIG. 6C). The results were plotted using Prism software (Version 8.00, GraphPad Software Inc). A waterfall plot of the ^1H NMR spectra is provided.

[6] = Stopped-flow kinetics of the Diels-Alder reaction with tetrazine 20; assay type: physicochemical; conditions: 4a, 10 μM tetrazine, 95:5 PBS/MeOH, 25° C., in s-1 (unit assumed)
[7] = 4a with a PEGylated amide of 20 in 100% H2O, previously measured (Darko et al.); cited from earlier work
[8] = system: cellular protein sulfenic acids; conditions: generally; not under the conditions of intracellular bioorthogonal chemistry (generally ≤10 μM); cited from earlier work

OC1CC/C=C/CCC1 (stereo not drawn) [Compound 4b, equatorial-5-hydroxy-trans-cyclooctene]
second-order rate constant k2 (equatorial isomer, comparison value) [1]: 22,400±40 M^−1s^−1

OC1CC/C=C/CCC1 (stereo not drawn) [Compound 4a, 5-ax-Hydroxy-trans-cyclooctene]
second-order rate constant k2 [2]: 70,000±1800 M^−1s^−1
decomposition of the trans-isomer [3]: no observable decomposition
TCO remaining ([4]; phosphate buffered D2O pD 7.4, 1 day (24 h), room temperature): 85%
TCO remaining ([4]; phosphate buffered D2O pD 7.4, 5 days): 35%
TCO remaining ([5]; phosphate buffered D2O pD 7.4, 4 hours): 89%
TCO remaining ([5]; phosphate buffered D2O pD 7.4, 20 hours): 49%
Kobs ([6]; Table 2 head A (0.49 mM)): 3.407
Kobs ([6]; Table 2 head B (0.73 mM)): 6.966
Kobs ([6]; Table 2 head C (0.97 mM)): 10.09
Kobs ([6]; Table 2 head D (1.31 mM)): 13.86
k2 [7]: 80,200

C#CCC1(O)CC/C=C/CCC1 (stereo not drawn) [Compound 5, 5-ax-Hydroxy-5-eq-propargyl-trans-cyclooctene]
TCO concentration at which sulfenic acids are modified [8]: ≥ 500 µM
